Results from PubChem BioAssay (NCI).
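All cell lines were grown in 96-well plates and treated with compound for 48 hours. At the TGI there is no net growth.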

Key:
Experiment in all cases: NCI tumour cell line growth inhibition, 48 h
[1] = system: UACC-257 melanoma
[2] = system: HT29 colon
[3] = system: OVCAR-5 ovarian
[4] = system: M19-MEL melanoma
[5] = system: UACC-62 melanoma
[6] = system: SK-MEL-5 melanoma
[7] = system: CCRF-CEM leukemia
[8] = system: U251 CNS
[9] = system: IGROV1 ovarian
[10] = system: SK-OV-3 ovarian
[11] = system: LOX IMVI melanoma
[12] = system: NCI-H460 lung
[13] = system: SN12C renal
[14] = system: SK-MEL-28 melanoma
[15] = system: 786-0 renal
[16] = system: SR leukemia
[17] = system: M14 melanoma
[18] = system: UO-31 renal
[19] = system: MCF7 breast
[20] = system: BT-549 breast

Row | SMILES | TGI [1] | TGI [2] | TGI [3] | TGI [4] | TGI [5] | TGI [6] | TGI [7] | TGI [8] | TGI [9] | TGI [10] | TGI [11] | TGI [12] | TGI [13] | TGI [14] | TGI [15] | TGI [16] | TGI [17] | TGI [18] | TGI [19] | TGI [20]
1 | COc1ccc2[nH]cc(CCNC(=O)[C@](O)(Cc3cn(C)c4ccccc34)[C@@]3(O)OCC(O)C3O)c2c1 (stereo not given in full) | > 100 µM | > 100 µM | > 100 µM | > 100 µM | > 100 µM | > 100 µM | > 100 µM | > 100 µM | > 100 µM | > 100 µM | > 100 µM | > 100 µM | > 100 µM | > 100 µM | > 100 µM | > 100 µM | > 100 µM |  |  | 
2 | CC(=O)c1cccc(NC(=O)C(=O)Nn2c(N)nnc2N)c1 | > 100 µM | > 100 µM | > 100 µM | > 100 µM | > 100 µM | > 100 µM | > 100 µM | > 100 µM | > 100 µM | > 100 µM | > 100 µM | > 100 µM | > 100 µM | > 100 µM | > 100 µM | > 100 µM | > 100 µM | > 100 µM |  | 
3 | Cc1ccc(C(=O)OCC(C)C)cc1N=NN(C)C | 71.1 µM | > 100 µM | > 100 µM | > 100 µM | > 100 µM | > 100 µM | > 100 µM | > 100 µM | > 100 µM | > 100 µM | > 85.2 µM | > 100 µM | > 100 µM | > 100 µM | > 100 µM | > 100 µM | > 100 µM | > 100 µM | > 100 µM | > 100 µM
